# Measured values: ChEMBL document CHEMBL1201862, “PubChem BioAssay data set” (2004)
# Calls of active or inactive are those of the source.
# What was measured:
# [1] = target: T1, Long-chain-fatty-acid--AMP ligase FadD28 (Mycobacterium tuberculosis, UniProt P9WQ59); experiment: Fluorescence polarization aasay to screen for inhibitors that compete for the binding of FadD28 to a bisubstrate Measured in Biochemical System Using Plate Reader - 2147-01_Inhibitor_Dose_CherryPick_Activity.; type: functional, Mycobacterium tuberculosis H37Rv
# T1 sequence (P9WQ59 whole entry): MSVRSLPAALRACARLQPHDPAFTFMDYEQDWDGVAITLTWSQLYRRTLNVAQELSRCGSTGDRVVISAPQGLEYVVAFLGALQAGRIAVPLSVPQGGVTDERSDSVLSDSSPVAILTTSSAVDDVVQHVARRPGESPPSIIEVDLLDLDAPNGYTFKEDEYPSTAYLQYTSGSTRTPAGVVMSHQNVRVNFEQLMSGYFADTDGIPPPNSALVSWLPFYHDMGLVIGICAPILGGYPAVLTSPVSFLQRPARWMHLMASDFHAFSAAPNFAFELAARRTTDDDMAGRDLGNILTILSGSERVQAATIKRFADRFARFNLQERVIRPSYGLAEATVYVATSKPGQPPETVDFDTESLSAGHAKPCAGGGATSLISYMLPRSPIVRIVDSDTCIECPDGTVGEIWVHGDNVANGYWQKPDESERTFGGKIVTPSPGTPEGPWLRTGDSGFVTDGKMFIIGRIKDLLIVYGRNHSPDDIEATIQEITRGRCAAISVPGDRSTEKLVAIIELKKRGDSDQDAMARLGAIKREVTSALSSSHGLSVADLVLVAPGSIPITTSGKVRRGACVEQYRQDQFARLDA
# [2] = target: T2, Carboxy-terminal domain RNA polymerase II polypeptide A small phosphatase 1 (Homo sapiens, UniProt Q9GZU7); experiment: CTDSP1 inhibitors, concentration-response, biochemical, absorbance readout, ultra-high-throughput screen actives (AID 540297); type: functional
# T2 sequence (Q9GZU7 whole entry): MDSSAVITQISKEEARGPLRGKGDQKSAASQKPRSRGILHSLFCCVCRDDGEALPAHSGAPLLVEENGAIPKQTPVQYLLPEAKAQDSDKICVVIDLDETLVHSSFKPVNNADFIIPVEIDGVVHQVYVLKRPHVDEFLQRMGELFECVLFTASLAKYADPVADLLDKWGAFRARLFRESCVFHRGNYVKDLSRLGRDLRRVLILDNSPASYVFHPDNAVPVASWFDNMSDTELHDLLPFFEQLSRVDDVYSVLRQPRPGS
# Protein Tat = target: T3, Protein Tat (Human immunodeficiency virus type 1 group M subtype B (isolate HXB2)(HIV-1), UniProt P04608); type: functional;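 note: tat binding to TAR RNA read out by fluorescence polarization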
# T3 sequence (P04608 whole entry): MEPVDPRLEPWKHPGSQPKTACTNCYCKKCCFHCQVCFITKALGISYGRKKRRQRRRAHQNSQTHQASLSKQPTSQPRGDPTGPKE
# Aminopeptidase N = target: T4, Aminopeptidase N (Plasmodium falciparum FcB1/Columbia, UniProt O96935); experiment: malaria alanyl aminopeptidase activity blockers – biochemical, fluorogenic H-Leu-NHMec substrate, 1536-well (AID 1445); set-up: species or system Plasmodium falciparum 3D7, 3D7
# T4 sequence (O96935 whole entry): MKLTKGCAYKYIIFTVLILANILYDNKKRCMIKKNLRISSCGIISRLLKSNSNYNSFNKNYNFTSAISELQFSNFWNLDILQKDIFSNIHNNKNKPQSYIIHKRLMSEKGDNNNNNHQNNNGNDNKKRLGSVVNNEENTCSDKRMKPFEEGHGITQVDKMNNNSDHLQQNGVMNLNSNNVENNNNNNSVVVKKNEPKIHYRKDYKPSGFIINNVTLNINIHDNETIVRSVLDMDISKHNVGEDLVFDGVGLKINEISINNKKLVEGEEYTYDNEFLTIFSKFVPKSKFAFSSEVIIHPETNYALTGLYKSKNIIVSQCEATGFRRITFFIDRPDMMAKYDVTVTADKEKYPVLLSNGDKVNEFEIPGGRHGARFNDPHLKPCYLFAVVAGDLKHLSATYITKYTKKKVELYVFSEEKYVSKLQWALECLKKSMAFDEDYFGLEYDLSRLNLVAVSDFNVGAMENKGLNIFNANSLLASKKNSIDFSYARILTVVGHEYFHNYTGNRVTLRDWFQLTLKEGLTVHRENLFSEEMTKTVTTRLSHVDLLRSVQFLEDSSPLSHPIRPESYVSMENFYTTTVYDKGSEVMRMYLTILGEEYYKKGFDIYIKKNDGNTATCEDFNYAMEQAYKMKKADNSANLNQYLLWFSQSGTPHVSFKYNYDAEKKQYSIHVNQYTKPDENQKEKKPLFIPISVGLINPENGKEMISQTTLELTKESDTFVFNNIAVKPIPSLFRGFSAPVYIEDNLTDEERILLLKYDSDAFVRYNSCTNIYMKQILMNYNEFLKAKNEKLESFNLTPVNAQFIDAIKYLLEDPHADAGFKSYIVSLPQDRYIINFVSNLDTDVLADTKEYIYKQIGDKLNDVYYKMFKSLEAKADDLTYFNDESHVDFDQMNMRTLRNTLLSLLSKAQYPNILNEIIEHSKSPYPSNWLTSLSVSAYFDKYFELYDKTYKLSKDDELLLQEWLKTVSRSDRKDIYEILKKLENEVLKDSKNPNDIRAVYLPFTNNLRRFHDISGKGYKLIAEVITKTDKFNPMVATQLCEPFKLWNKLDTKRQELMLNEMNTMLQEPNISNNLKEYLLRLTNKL
# Cytochrome P450 2C19 = Cytochrome P450 2C19 (Homo sapiens, UniProt P33261); experiment: Cytochrome panel assay with activity outcomes. Panel member name: p450-cyp2c19 Compounds with AC50 equal or less than 10 uM are considered active; type: functional; conditions: read-out: AC50
# Kallikrein-7 = Kallikrein-7 (Homo sapiens, UniProt P49862); experiment: Fluorescence Intensity-based biochemical primary high throughput dose response assay to identify activators of kallikrein-7 (K7) zymogen.
# [3] = blockers of CRF-binding protein–CRF-R2 complex – cell-based, uHTS hits, 384-well, dose response (AID 651639); type: functional, Homo sapiens; conditions: read-out: IC50_Mean
# [4] = target: T5, Corticotropin-releasing factor receptor 2/Corticotropin-releasing factor-binding protein (Homo sapiens, UniProt P24387+Q13324); experiment: activators of CRF receptor 2 with binding protein – uHTS hits, confirmation (AID 602473); type: functional; conditions: read-out: EC50_Mean
# T5 sequence (Q13324 whole entry): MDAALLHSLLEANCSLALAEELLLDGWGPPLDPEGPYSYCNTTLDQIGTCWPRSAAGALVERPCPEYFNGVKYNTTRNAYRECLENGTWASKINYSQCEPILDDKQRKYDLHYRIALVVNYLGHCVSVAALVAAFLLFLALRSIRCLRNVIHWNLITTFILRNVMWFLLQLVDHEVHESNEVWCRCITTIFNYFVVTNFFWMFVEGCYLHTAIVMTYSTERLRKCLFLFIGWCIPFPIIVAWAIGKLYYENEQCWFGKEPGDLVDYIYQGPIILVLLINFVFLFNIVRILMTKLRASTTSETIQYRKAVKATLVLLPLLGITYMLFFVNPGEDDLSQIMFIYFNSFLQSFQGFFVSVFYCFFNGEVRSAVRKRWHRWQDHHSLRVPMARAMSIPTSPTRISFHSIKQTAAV
# T5 sequence (P24387 whole entry): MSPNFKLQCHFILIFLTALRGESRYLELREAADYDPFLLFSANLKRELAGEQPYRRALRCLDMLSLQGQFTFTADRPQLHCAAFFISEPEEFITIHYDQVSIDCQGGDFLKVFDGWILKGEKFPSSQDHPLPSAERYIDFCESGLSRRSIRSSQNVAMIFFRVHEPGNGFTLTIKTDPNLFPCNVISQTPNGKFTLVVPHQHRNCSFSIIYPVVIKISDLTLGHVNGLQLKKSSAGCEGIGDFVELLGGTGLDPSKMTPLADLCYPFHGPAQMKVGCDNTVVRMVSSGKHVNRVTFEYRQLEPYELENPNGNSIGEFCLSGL
# [5] = target: T5, Corticotropin-releasing factor receptor 2/Corticotropin-releasing factor-binding protein; experiment: Dose Response confirmation of uHTS hits for small molecule antagonists of the CRF-binding protein and CRF-R2 receptor complex.; type: functional; conditions: read-out: IC50_Mean
# [6] = OVCAR8 cell viability loss – plate reader, dry powder samples, PAX8 project, dose response (AID 743197); type: functional, cell-based; conditions: OVCAR-8
# [7] = IGROV1 cell killing – plate reader, dry powder samples, PAX8 inhibitor project, dose response (AID 743043); type: functional, cell-based; conditions: IGROV-1
# [8] = OVCAR-3 cell viability loss – plate reader, dry powder samples, PAX8 inhibitor project, dose response (AID 743044); type: functional, cell-based
# Paired box protein Pax-8 = Paired box protein Pax-8 (Homo sapiens, UniProt Q06710); experiment: PAX8 transcriptional activity inhibition in RMG-I – RMG-I cells, luciferase, cherry-pick, dose response (AID 687027); type: functional, cell-based;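 note: luciferase reporter driven by Pax8 target thyroperoxidase promoter measured by SteadyGlo luminescence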
# Beta-galactosidase = Beta-galactosidase (Escherichia coli, UniProt Q8VNN2); experiment: Dose response counterscreen for EBI2 assay utilizing the enzyme, b-galactosidase.; type: functional
# Vero = experiment: cells; type: functional; conditions: Chlorocebus sabaeus
# [9] = target: Heat shock protein HSP 90-alpha (Homo sapiens, UniProt P07900); type: functional, organism-based
# [10] = Luminescence Cell-Based Dose Retest to Confirm Inhibitors of Cancer Stem Cells. [Related pubchem assays (depositor defined):AID2717, AID2721]; type: functional; conditions: Homo sapiens
# [11] = viability inhibitors of stage V gametocytes – luminescence, dose response (AID 1117278); type: functional, cell-based;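 note: gametocytes exposed to compound for 24 hours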
# [12] = viability loss in human Jurkat cells – cell-based, luminescence, cytotoxicity control for P. falciparum gametocyte viability project, dose response (AID 1117277); type: functional;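 note: potency reflects loss of cellular ATP meaning fewer viable cells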
# Chain of Kallikrein-7 (P49862 whole entry): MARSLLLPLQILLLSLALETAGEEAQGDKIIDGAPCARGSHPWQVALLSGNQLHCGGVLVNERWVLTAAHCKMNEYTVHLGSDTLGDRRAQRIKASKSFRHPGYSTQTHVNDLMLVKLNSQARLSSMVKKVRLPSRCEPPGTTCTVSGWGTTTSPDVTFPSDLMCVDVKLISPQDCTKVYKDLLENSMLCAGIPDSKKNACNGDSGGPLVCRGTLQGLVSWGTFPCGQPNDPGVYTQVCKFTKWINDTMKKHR
# Chain of Paired box protein Pax-8 (Q06710 whole entry): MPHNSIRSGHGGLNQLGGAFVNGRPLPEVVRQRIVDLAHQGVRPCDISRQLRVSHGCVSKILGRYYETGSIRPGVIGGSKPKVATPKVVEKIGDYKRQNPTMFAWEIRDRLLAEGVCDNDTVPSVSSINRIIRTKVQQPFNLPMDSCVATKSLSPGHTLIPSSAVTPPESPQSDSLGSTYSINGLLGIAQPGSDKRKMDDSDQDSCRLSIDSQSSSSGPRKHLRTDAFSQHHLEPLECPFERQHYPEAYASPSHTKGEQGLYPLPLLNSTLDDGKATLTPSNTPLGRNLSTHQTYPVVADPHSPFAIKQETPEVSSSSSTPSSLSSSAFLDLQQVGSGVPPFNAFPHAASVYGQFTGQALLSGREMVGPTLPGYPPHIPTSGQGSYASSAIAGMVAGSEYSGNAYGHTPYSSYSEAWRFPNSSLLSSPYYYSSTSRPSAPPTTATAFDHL
# Chain of Cytochrome P450 2C19 (P33261 whole entry): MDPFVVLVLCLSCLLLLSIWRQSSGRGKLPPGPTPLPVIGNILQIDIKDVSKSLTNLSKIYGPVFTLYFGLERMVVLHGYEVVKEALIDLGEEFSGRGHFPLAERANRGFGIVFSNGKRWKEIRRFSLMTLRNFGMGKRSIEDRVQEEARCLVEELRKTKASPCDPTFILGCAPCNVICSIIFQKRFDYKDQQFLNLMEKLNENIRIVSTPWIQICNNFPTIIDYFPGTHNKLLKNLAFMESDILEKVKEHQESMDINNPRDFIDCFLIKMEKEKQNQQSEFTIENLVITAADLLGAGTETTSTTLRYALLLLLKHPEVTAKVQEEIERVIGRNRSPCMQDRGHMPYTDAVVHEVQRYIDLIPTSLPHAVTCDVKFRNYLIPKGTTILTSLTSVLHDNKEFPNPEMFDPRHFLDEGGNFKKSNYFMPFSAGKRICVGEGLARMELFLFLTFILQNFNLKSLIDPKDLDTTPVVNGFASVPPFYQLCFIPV
# Chain of Beta-galactosidase (Q8VNN2 whole entry): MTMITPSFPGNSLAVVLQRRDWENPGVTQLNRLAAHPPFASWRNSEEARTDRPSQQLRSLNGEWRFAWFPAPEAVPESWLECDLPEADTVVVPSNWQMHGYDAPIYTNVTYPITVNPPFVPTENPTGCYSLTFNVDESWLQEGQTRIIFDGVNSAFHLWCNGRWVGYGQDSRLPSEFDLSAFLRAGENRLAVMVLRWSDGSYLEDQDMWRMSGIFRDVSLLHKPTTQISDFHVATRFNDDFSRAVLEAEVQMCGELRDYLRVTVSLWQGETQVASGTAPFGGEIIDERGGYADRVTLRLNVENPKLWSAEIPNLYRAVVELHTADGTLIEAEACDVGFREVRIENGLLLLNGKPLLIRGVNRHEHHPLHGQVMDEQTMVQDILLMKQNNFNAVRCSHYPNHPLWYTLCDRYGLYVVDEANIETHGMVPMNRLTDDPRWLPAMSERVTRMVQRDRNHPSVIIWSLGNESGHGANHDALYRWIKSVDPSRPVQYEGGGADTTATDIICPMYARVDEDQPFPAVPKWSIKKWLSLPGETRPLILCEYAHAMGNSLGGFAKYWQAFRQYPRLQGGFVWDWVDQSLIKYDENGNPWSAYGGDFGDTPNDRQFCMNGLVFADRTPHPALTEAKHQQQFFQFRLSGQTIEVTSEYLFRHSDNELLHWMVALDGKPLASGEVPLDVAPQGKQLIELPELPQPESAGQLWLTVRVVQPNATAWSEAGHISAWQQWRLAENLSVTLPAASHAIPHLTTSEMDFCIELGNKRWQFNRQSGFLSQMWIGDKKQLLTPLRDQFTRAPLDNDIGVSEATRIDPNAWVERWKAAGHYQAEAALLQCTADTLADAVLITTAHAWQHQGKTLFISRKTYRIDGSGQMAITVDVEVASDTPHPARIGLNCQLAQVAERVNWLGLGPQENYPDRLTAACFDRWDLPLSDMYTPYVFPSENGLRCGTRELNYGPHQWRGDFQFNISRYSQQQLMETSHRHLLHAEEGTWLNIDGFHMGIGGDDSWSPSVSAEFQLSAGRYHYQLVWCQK
compound,measurement,setting,value
Cc1cccc(NC(=O)CN2C(=O)S/C(=C\c3ccc(O)c([N+](=O)[O-])c3)C2=O)c1,AC50,[1],0.102 µM (active)
same,IC50,[2],3.43 µM (active)
O=C(COC(=O)c1ccc(O)cc1O)Nc1cccc2ccccc12,AC50,[1],> 100 µM (inactive)
CC(=O)/N=C1\C(=O)N(C)c2cccc3c(O)c4ccccc4c1c23,IC50,Protein Tat,> 100 µM (active)
same,IC50,Aminopeptidase N,27.9 µM (active)
same,AC50,Cytochrome P450 2C19,14.1 µM (inconclusive)
COC(=O)CC1=C(C(=O)OC)[C@@H](c2ccccc2[N+](=O)[O-])C(C#N)=C(N)O1,EC50,Kallikrein-7,8.2 µM (active)
COC(=O)c1cc(OC)c(OC)cc1NC(=O)c1c(-c2ccccc2)noc1C,IC50,[3],1.87 µM (active)
same,EC50,[4],> 53 µM (inactive)
same,IC50,[5],16.2 µM (active)
C[C@H]1CCCCO[C@@H](CN(C)S(=O)(=O)c2ccccc2)[C@@H](C)CN([C@@H](C)CO)C(=O)c2cc(NC(=O)Nc3ccc(C(F)(F)F)cc3)ccc2O1,AC50,[6],52.4 µM (active)
same,AC50,[7],53.1 µM (active)
same,AC50,[8],19.4 µM (active)
same,AC50,Paired box protein Pax-8,6.6 µM (active)
COc1ccc(C(=O)/C=C2\C(=O)Nc3ccc(Br)cc32)cc1,IC50,Beta-galactosidase,71.6 µM (inactive)
same,CC50,Vero,14.9 µM (active)
same,AC50,[9],1.59 µM (active)
CC1=NN(c2nc(-c3ccc(F)cc3)cs2)C(=O)C1,AC50,[1],32 µM (inactive)
same,AC50,[10],7.23 µM (active)
CCn1c(SCC(=O)NCc2ccco2)nnc1-c1cccs1,IC50,Protein Tat,> 100 µM (active)
NCCCN1CCOCC1,IC50,[11],> 109 µM (inactive)
same,IC50,[12],> 83.4 µM (inactive)
CS(=O)(=O)N(CC(=O)N1CCC(C(N)=O)CC1)C1CCCCC1,IC50,[11],> 109 µM (inactive)
same,IC50,[12],> 83.3 µM (inactive)
CCOC(=O)C1CCN(S(=O)(=O)c2cccc(-c3cn4cccnc4n3)c2)CC1,EC50,Kallikrein-7,> 69.5 µM (inactive)
